Laboratory results reported in ChEMBL document CHEMBL3120146, “Synthesis and biological evaluation of new boron-containing chlorin derivatives as agents for both photodynamic therapy and boron neutron capture therapy of cancer” (Bioorg Med Chem Lett, 2014).
The source made the active and inactive calls. The calls are words filed in the database; no cut-off is given here.

Columns and labels:
Colon 26 [1] = assay: Antitumor activity against mouse Colon 26 cells allografted in BALB/c mouse assessed as tumor growth inhibition at 10 umol/kg, iv pretreated for 3 hrs followed by light-emitting diode irradiation at 660 nm wavelength measured after 3 to 7 days by photodynamic therapy; assay type: functional, organism-based; settings: tested as the 10B-labelled form
Colon 26 [2] = assay: Cytotoxicity against mouse Colon 26 cells assessed as cell viability at 1 to 10 uM after 24 hrs by WST-8 assay; assay type: cell-based; settings: colon 26, 24 h
Serum [3] = assay: Biodistribution in BALB/c mouse serum allografted with mouse Colon 26 cells at 10 umol/kg, iv measured at 24 hrs by spectrofluorometric analysis; assay type: ADME, organism-based; settings: in vivo
Zone of skin = assay: Biodistribution in BALB/c mouse skin allografted with mouse Colon 26 cells at 10 umol/kg, iv measured at 24 hrs by spectrofluorometric analysis; assay type: ADME, organism-based; settings: in vivo
Muscle tissue = assay: Biodistribution in BALB/c mouse muscle allografted with mouse Colon 26 cells at 10 umol/kg, iv measured at 24 hrs by spectrofluorometric analysis; assay type: ADME, organism-based; settings: in vivo
Brain = assay: Biodistribution in BALB/c mouse brain allografted with mouse Colon 26 cells at 10 umol/kg, iv measured at 24 hrs by spectrofluorometric analysis; assay type: ADME, organism-based; settings: in vivo
Lung = assay: Biodistribution in BALB/c mouse lung allografted with mouse Colon 26 cells at 10 umol/kg, iv measured at 24 hrs by spectrofluorometric analysis; assay type: ADME, organism-based; settings: in vivo
Spleen = assay: Biodistribution in BALB/c mouse spleen allografted with mouse Colon 26 cells at 10 umol/kg, iv measured at 24 hrs by spectrofluorometric analysis; assay type: ADME, organism-based; settings: in vivo
Kidney = assay: Biodistribution in BALB/c mouse kidney allografted with mouse Colon 26 cells at 10 umol/kg, iv measured at 24 hrs by spectrofluorometric analysis; assay type: ADME, organism-based; settings: in vivo
Liver [4] = assay: Biodistribution in BALB/c mouse liver allografted with mouse Colon 26 cells at 10 umol/kg, iv measured at 24 hrs by spectrofluorometric analysis; assay type: ADME, organism-based; settings: in vivo
Tumour [5] = assay: Biodistribution in tumor of BALB/c mouse allografted with mouse Colon 26 cells at 10 umol/kg, iv measured at 12 hrs by spectrofluorometric analysis; assay type: ADME, organism-based; settings: in vivo
[6] = Solubility of the compound in water; assay type: physicochemical
Serum [7] = assay: Biodistribution in BALB/c mouse serum allografted with mouse Colon 26 cells at 10 umol/kg, iv measured at 3 hrs by spectrofluorometric analysis; assay type: ADME, organism-based; settings: in vivo
Serum [8] = assay: Biodistribution in BALB/c mouse serum allografted with mouse Colon 26 cells at 10 umol/kg, iv measured at 1 hr by spectrofluorometric analysis; assay type: ADME, organism-based; settings: in vivo
Serum [9] = assay: Biodistribution in BALB/c mouse serum allografted with mouse Colon 26 cells at 10 umol/kg, iv measured at 6 to 12 hrs by spectrofluorometric analysis; assay type: ADME, organism-based; settings: in vivo
Liver [10] = assay: Biodistribution in BALB/c mouse liver allografted with mouse Colon 26 cells at 10 umol/kg, iv measured at 1 to 12 hrs by spectrofluorometric analysis; assay type: ADME, organism-based; settings: in vivo
Tumour [11] = assay: Biodistribution in tumor of BALB/c mouse allografted with mouse Colon 26 cells at 10 umol/kg, iv measured at 3 hrs by spectrofluorometric analysis; assay type: ADME, organism-based; settings: in vivo

SMILES | TGI (Colon 26 [1]) | Activity (Colon 26 [2]) | Drug uptake (Serum [3]) | Drug uptake (Zone of skin) | Drug uptake (Muscle tissue) | Drug uptake (Brain) | Drug uptake (Lung) | Drug uptake (Spleen) | Drug uptake (Kidney) | Drug uptake (Liver [4]) | Drug uptake (Tumour [5]) | solubility [6] | Drug uptake (Serum [7]) | Drug uptake (Serum [8]) | Drug uptake (Serum [9]) | Drug uptake (Liver [10]) | Drug uptake (Tumour [11])
C=Cc1c(C)c2cc3nc(cc4[nH]c(cc5nc(cc1[nH]2)C(C)(O)/C5=C\C=N\OCC)c(C)c4CCC(=O)NC(Cc1ccc(B(O)O)cc1)C(=O)O)C(CCC(=O)NC(Cc1ccc(B(O)O)cc1)C(=O)O)=C3C (configuration not stated) | Active |  |  |  |  |  |  |  |  |  |  |  |  |  |  |  | 
C=Cc1c(C)c2cc3nc(cc4[nH]c(cc5nc(cc1[nH]2)C(C)(O)/C5=C\C=N\OCCCNC(=O)/C=C/c1ccc([10B](O)O)cc1)c(C)c4CCC(=O)N(CC(=O)[O-])CC(=O)[O-])C(CCC(=O)N(CC(=O)[O-])CC(=O)[O-])=C3C.[Na+].[Na+].[Na+].[Na+] (configuration not stated) |  | Non-toxic | Not Active | Active | Active | Active | Active | Active | Active | Active | 0.21 pmol/mg | 100 µg/mL |  |  |  |  | 
C=Cc1c(C)c2cc3nc(cc4[nH]c(cc5nc(cc1[nH]2)C(C)(O)/C5=C\C=N\OCC)c(C)c4CCC(=O)NC(Cc1ccc([10B](O)O)cc1)C(=O)[O-])C(CCC(=O)NC(Cc1ccc([10B](O)O)cc1)C(=O)[O-])=C3C.[Na+].[Na+] (configuration not stated) |  | Non-toxic | Not Active | Active | Active | Active | Active | Active | Active | Active |  | 100 µg/mL | 32.2 pmol/mg | 7.6 pmol/mg | Active | Active | 0.27 pmol/mg
